Laboratory results as given in patent US20090221665A1, “Organic Compounds” (priority 2005, published 2009).

Test system: male rats
Assay: Fecal pellet output in male rats after i.p. dosing
Format: in vivo, rat
Conditions: for fecal pellet output (in words): dosed alone, every 30 mins for 2 hr
Method: Methods: In male rats (200-300 g) fecal pellet output was measured every 30 mins for 2 hr following administration of tegaserod (0.01-1.0 mg/kg i.p.), neostigmine (0.01-0.1 mg/kg i.p.) or a combination of both compounds.

Structure (SMILES) | # Fecal Pellets (Neo 0.01 mg/kg i.p. alone, 30 min) | # Fecal Pellets (Neo 0.01 mg/kg i.p. alone, 60 min) | # Fecal Pellets (Neo 0.01 mg/kg i.p. alone, 90 min) | # Fecal Pellets (Neo 0.01 mg/kg i.p. alone, 120 min) | fecal pellet output (in words) (neostigmine 0.01-0.1 mg/kg i.p.) | # Fecal Pellets (Teg 0.01 mg/kg i.p. alone, 30 min) | # Fecal Pellets (Teg 0.01 mg/kg i.p. alone, 60 min) | # Fecal Pellets (Teg 0.01 mg/kg i.p. alone, 90 min) | # Fecal Pellets (Teg 0.01 mg/kg i.p. alone, 120 min) | # Fecal Pellets (Teg 0.1 mg/kg i.p. alone, 30 min) | # Fecal Pellets (Teg 0.1 mg/kg i.p. alone, 60 min) | # Fecal Pellets (Teg 0.1 mg/kg i.p. alone, 90 min) | # Fecal Pellets (Teg 0.1 mg/kg i.p. alone, 120 min) | fecal pellet output (in words) (tegaserod 0.01-1.0 mg/kg i.p.)
CN(C)C(=O)Oc1cccc([N+](C)(C)C)c1 [Neo, neostigmine] | 0.67 ± 0.33 | 1.00 ± 0.58 | 1.00 ± 0.58 | 1.33 ± 0.67 | dose and time-dependent increase in fecal pellet output | – | – | – | – | – | – | – | – | –
CCCCCNC(=N)N/N=C/c1c[nH]c2ccc(OC)cc12 [Teg, 3-(5-methoxy-1H-indol-3-yl-methylene)-N-pentylcarbazimidamide] | – | – | – | – | – | 0.17 ± 0.17 | 0.17 ± 0.17 | 0.33 ± 0.21 | 1.50 ± 0.62 | 0.83 ± 0.32 | 1.25 ± 0.35 | 1.50 ± 0.34 | 1.83 ± 0.39 | dose and time-dependent increase in fecal pellet output
